One may read the solubility as the dissolved amount per volume that the medium holds. As a reminder, the IC50 is the concentration at which inhibition is half-maximal.

The results in this text go back to ChEMBL document CHEMBL3608302, “Identification of 2-aminopyrimidine derivatives as inhibitors of the canonical Wnt signaling pathway” (Bioorg Med Chem, 2015).

Converted amounts (≈) assume the structure as drawn. Where only a bound is given, the exact number is not on record here.

The target in one data set is CYP3A4 (Homo sapiens, UniProt P08684). As to the kind of experiment: Metabolic stability of in DMSO solution assessed as human CYP3A4-mediated drug degdaradtion by measuring compound remaining at 1 uM after 1 hr in presence of human CYP3A4 and NADPH. Conditions: human CYP3A4 enzyme, read-out: Stability; call rule not given here. Type of data set: ADME.
The nature of data set [1]: Solubility of the compound at pH 3 to 7.4 after 24 hrs. Type of data set: physicochemical. The note with it: buffer; for solubility: pH 3, 24 h; for solubility at 24 h: pH 3.
Data set [2] in a line: Inhibition of canonical Wnt pathway in human DBTRG-05-MG cells after 36 hrs by TCF-luciferase and TA-renilla dual-luciferase reporter assay. Format: cell-based.
The nature of data set [3]: Permeability of the compound by PAMPA. Format: physicochemical. The note with it: read-out: permeability. (In general: PAMPA measures passive passage across an artificial lipid membrane.)
Where [4] appears, read: Homo sapiens, DBTRG-05MG, 36 h, read-out: IC50.

CYP3A4, sequence (P08684 whole entry): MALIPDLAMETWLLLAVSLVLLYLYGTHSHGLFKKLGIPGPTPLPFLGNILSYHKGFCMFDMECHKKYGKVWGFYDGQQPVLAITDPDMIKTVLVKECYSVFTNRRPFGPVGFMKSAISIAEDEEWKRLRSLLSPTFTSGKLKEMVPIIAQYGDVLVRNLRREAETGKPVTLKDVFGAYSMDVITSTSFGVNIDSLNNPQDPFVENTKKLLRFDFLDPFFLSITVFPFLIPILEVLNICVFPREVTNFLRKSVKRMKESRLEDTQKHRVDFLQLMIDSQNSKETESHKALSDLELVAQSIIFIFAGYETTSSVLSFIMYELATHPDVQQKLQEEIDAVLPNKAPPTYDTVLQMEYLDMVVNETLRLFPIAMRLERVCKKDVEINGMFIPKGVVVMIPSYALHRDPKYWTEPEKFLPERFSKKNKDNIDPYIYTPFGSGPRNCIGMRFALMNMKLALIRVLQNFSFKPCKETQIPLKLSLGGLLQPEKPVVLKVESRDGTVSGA

As for `Cc1cc(-c2cnc(N3CCOCC3)nc2-c2ccc(C)s2)on1`, the remaining at 1 h, 1 µM at CYP3A4 is under 20%. The solubility entry in data set [1] was “Insoluble”. Moreover, the concentration for half-maximal inhibition (IC50) in data set [2] (setting [4]) turned out to be 8.5 µM.
On to `Cc1cc(-c2cnc(N3CCCC3)nc2-c2ccc(C)s2)on1`, for which the remaining at 1 h, 1 µM at CYP3A4 is under 20%. Moreover, in data set [1], the solubility result was “Insoluble”. For the same compound, the IC50 entry in data set [2] is on record as “Not Active”.
Take `Cc1cc(-c2cnc(N3CCN(C)CC3)nc2-c2ccc(C)s2)on1`: the remaining at 1 h, 1 µM at CYP3A4 stood at 51%. Further, the solubility at 24 h in data set [1] came to 11 µM (≈ 3.91 µg/mL). For the same compound, in data set [3], the Papp is over 10 ×10⁻⁶ cm/s. Besides, in data set [2], the IC50 entry was “Not Active”.
On to `Cc1cc(-c2cnc(N3CC(C)OC(C)C3)nc2-c2ccc(C)s2)on1` (stereo not drawn), for which the remaining at 1 h, 1 µM on CYP3A4 is under 20%. Moreover, the solubility result in data set [1] is “Insoluble”. For the same compound, the IC50 in data set [2] (setting [4]) is 14.1 µM.
Take `Cc1cc(-c2cnc(NC(C)C)nc2C2CCN(C(=O)c3ccc(C)s3)CC2)on1`: the remaining at 1 h, 1 µM at CYP3A4 was under 20%. Moreover, the solubility entry in data set [1] is recorded as “Insoluble”. In addition, the IC50 in data set [2] (setting [4]) was 8.05 µM.
On to `Cc1cc(-c2cnc(NCc3cccnc3)nc2-c2ccc(C)s2)on1`, for which, at CYP3A4, the remaining at 1 h, 1 µM is under 20%. Further, the solubility at 24 h in data set [1] turned out to be 1 µM (≈ 0.363 µg/mL). In addition, in data set [2] (setting [4]), the IC50 was 17.6 µM.
Taken in the same sequence, the figures for `Cc1cc(-c2cnc(NCc3ccccn3)nc2-c2ccc(C)s2)on1` were under 20%, 1 µM (≈ 0.363 µg/mL) and 13.9 µM.
Regarding `Cc1cc(-c2cnc(NC(C)C)nc2-c2ccc(C)s2)on1`, the remaining at 1 h, 1 µM on CYP3A4 stood at 20%. In addition, the solubility entry in data set [1] was “Insoluble”. The IC50 result in data set [2] is listed as “Not Active”.
`Cc1cc(-c2cnc(NCc3ccc(F)cc3)nc2-c2ccc(C)s2)on1`: on CYP3A4, the remaining at 1 h, 1 µM was 29%. Besides, in data set [1], the solubility entry is listed as “Insoluble”. In addition, the IC50 entry in data set [2] was “Not Active”.
In the case of `COCCNc1ncc(-c2cc(C)no2)c(-c2ccc(C)s2)n1`, the remaining at 1 h, 1 µM at CYP3A4 stood at 27%. In addition, the solubility result in data set [1] is “Insoluble”. In data set [3], the Papp is over 10 ×10⁻⁶ cm/s. Besides, in data set [2], the half-maximal inhibitory concentration (IC50) result was “Not Active”.
Consider `CC(=O)N1CCC(c2nc(N3CCCC3)ncc2-c2cc(C)no2)CC1`, for which, at CYP3A4, the remaining at 1 h, 1 µM was determined as 59%. Further, in data set [1], the solubility at 24 h is 207 µM (≈ 73.6 µg/mL). In addition, the Papp in data set [3] was over 10 ×10⁻⁶ cm/s. Besides, the half-inhibitory concentration (IC50) entry in data set [2] is “Not Active”.
As for `CC(=O)N1CCC(c2nc(N3CCN(C)CC3)ncc2-c2cc(C)no2)CC1`, at CYP3A4, the remaining at 1 h, 1 µM worked out at 100%. The compound further gave a solubility at 24 h in data set [1] of 225 µM (≈ 86.5 µg/mL). For the same compound, in data set [3], the Papp is 2 ×10⁻⁶ cm/s. Further, the 50% inhibitory concentration (IC50) result in data set [2] is listed as “Not Active”.
Take `CC(=O)N1CCC(c2nc(N3CCOCC3)ncc2-c2cc(C)no2)CC1`: the remaining at 1 h, 1 µM on CYP3A4 stood at 75%. The same compound yielded a solubility at 24 h in data set [1] of 211 µM (≈ 78.4 µg/mL). For the same compound, the Papp in data set [3] was over 10 ×10⁻⁶ cm/s. Also, the 50% inhibitory concentration (IC50) in data set [2] (setting [4]) worked out at 10.6 µM.
Turning to `CC(=O)N1CCC(c2nc(NCc3cccnc3)ncc2-c2cc(C)no2)CC1`, on CYP3A4, the remaining at 1 h, 1 µM was under 20%. In data set [1], the solubility at 24 h came out at 238 µM (≈ 93.4 µg/mL). Besides, the Papp in data set [3] was found to be 2 ×10⁻⁶ cm/s.
Consider `CC(=O)N1CCC(c2nc(NCc3ccccn3)ncc2-c2cc(C)no2)CC1`, for which, on CYP3A4, the remaining at 1 h, 1 µM is 27%. Also, the solubility at 24 h in data set [1] was 221 µM (≈ 86.7 µg/mL). In addition, in data set [3], the Papp worked out at 2 ×10⁻⁶ cm/s. The IC50 result in data set [2] was “Not Active”.
Taken in the same sequence, the figures for `CC(=O)N1CCC(c2nc(NC(C)C)ncc2-c2cc(C)no2)CC1` were 75%, 224 µM (≈ 76.9 µg/mL), over 10 ×10⁻⁶ cm/s and “Not Active”.
`CC(=O)N1CCC(c2nc(NCc3ccc(F)cc3)ncc2-c2cc(C)no2)CC1`: the remaining at 1 h, 1 µM at CYP3A4 is under 20%. The solubility entry in data set [1] is “Insoluble”. Moreover, in data set [3], the Papp was over 10 ×10⁻⁶ cm/s. Besides, the IC50 result in data set [2] is listed as “Not Active”.
For the compound `COCCNc1ncc(-c2cc(C)no2)c(C2CCN(C(C)=O)CC2)n1`, the remaining at 1 h, 1 µM on CYP3A4 was determined as 84%. Further, in data set [1], the concentration in solution (solubility at 24 h) was 233 µM (≈ 83.7 µg/mL). In addition, the Papp in data set [3] was 2 ×10⁻⁶ cm/s. In addition, the concentration for half-maximal inhibition (IC50) entry in data set [2] is given as “Not Active”.
